Tests used:
[1] = Converting into carboxylic acid in the living body: concentration in blood plasma of rat (LC/MS/MS); assay type: in vivo, SD-strain male rat; details: after Example 1(1) 1 mg/kg intravenous to rat, parent alcohol and the carboxylic acid formed from it
Description: The compound of Example 1(1) (1 mg/kg; alcohol compound) was administered into SD-strain male rat by intravenous route to determine each concentration of the said compound and corresponding carboxylic acid, i.e., (11α, 15α, 13E)-9-oxo-11,15-dihydroxy-16-(3-methoxymethylphenyl)-17,18,19,20-tetranor-5-thiaprost-13-enoic acid (corresponding carboxylic acid) in blood plasma. The test solution may be prepared from a physiological saline solution containing 0.3%ethanol and 0.1% POLYSORBATE 80. The concentration was determined by using liquid chromatograph mass spectrometer (LC/MS/MS).

[2] = tested on: TNF-α; test: Inhibitory action on producing TNF-α induced by LPS in rat; assay type: in vivo, SD-strain male rat; details: p.o. 30 minutes before LPS (10 μg/2 ml/kg i.v.); dose giving 50% inhibition of TNF-α in blood plasma 90 minutes after LPS
Description: LPS (10 μg/2 ml/kg) was administered into a tail vein of SD-strain male rat. Blood was collected from an abdominal large vein with heparin after 90 minutes from administration to prepare blood plasma. The amount of TNF-α in the blood plasma was determined by using ELISA Kit (Rat TNF-α Immunoassay kit, Biosource Co.). Each compound of the present invention was administered orally before 30 minutes from administration of LPS.

| AUC(0-inf) ([1]; male, SD, plasma, read-out: Concentration in blood plasma AUC0-∞) [ng·h/mL] | Effective dose IC50 [2] [mg/kg] | Concentration in blood plasma AUC0-∞ [1] [ng·h/mL] | Structure (SMILES) |
| --- | --- | --- | --- |
| 462 ± 78 | 0.0574 |  | COCc1cccc(C[C@H](O)/C=C/[C@H]2[C@H](O)CC(=O)[C@@H]2CCSCCCCO)c1 [Example 1(1), (11α, 15α, 13E)-9-oxo-11,15-Dihydroxy-16-(3-methoxymethylphenyl)-17,18,19,20-tetranor-5-thiaprost-13-en-1-alcohol] |
|  |  | 99 ± 26 | COCc1cccc(C[C@H](O)/C=C/[C@H]2[C@H](O)CC(=O)[C@@H]2CCSCCCC(=O)O)c1 [corresponding carboxylic acid, (11α, 15α, 13E)-9-oxo-11,15-dihydroxy-16-(3-methoxymethylphenyl)-17,18,19,20-tetranor-5-thiaprost-13-enoic acid] |
|  | 0.117 |  | COCc1cccc(C[C@H](O)/C=C/[C@H]2CCC(=O)[C@@H]2CCSCCCCO)c1 [Example 1, (15α, 13E)-9-oxo-15-Hydroxy-16-(3-methoxymethylphenyl)-17,18,19,20-tetranor-5-thiaprost-13-en-1-alcohol] |
